# Assay results taken from patent US11667602B2, “Compounds and their use” (AstraZeneca AB, priority 2020, dated 2023).
# Like-named read-outs stand apart in the source and are kept apart here.
# Target: T1, human RXFP1 (Homo sapiens, UniProt Q9HBX9)
# T1 sequence (Q9HBX9 1-757): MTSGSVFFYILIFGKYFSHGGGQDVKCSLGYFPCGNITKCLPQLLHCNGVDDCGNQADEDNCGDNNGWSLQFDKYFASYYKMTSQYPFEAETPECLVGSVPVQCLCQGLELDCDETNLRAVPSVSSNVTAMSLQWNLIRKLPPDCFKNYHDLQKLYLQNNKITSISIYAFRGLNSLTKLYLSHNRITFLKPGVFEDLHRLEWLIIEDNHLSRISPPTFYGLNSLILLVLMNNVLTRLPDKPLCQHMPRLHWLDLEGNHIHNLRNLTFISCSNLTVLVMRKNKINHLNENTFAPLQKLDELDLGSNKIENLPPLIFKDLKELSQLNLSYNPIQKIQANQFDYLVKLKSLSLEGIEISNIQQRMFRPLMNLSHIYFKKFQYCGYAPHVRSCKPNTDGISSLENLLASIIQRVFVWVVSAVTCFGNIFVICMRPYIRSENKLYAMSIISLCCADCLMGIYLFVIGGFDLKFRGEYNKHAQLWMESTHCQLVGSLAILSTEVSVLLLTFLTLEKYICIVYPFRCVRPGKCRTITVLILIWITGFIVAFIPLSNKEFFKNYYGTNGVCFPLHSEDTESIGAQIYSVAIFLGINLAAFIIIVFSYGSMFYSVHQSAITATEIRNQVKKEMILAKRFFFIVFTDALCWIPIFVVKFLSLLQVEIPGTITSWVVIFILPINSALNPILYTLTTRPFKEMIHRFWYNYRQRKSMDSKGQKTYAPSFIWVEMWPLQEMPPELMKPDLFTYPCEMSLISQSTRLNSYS
# Assay: RXFP1 Hu cAMP (Test A)
# Type: cell-based
# Design: expressed in transfected cells; host or cells: Jump-In T-REx CHO-K1 cells (ThermoFisher), induced with 10 ng/ml doxycycline for 24 h
# Procedure, shortened: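 Read-out is HTRF signal, inversely proportional to cAMP, converted to cAMP amount by standard curve. Stimulation occurred in inducible CHO-K1 cells expressing the human receptor with phosphodiesterases blocked by 0.5 mM IBMX.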
# [1] = RXFP1 Hu cAMP, read-out: Test A EC50
Compound,Test A Sinf (RXFP1 Hu cAMP),EC50 [1],"EC50 (Test A EC50, RXFP1 Hu cAMP)"
"COc1cc(F)c(-c2ccc(OCC(=O)O)cc2)cc1C(=O)N[C@@H]1[C@H]2CC[C@H](C2)[C@@H]1C(=O)NCC(C)(C)C [Example 330, 2-((2′-Fluoro-4′-methoxy-5′-(((1S,2R,3S,4R)-3-(neopentylcarbamoyl)bicyclo[2.2.1]heptan-2-yl)carbamoyl)-[1,1′-biphenyl]-4-yl)oxy)acetic acid]",97%,530 nM,
COc1cc(F)c(O[C@H]2CC[C@@](C)(C(=O)O)CC2)cc1C(=O)N[C@@H]1CCO[C@@H]1C(=O)Nc1cccc(S(=O)(=O)C(F)(F)F)c1 [Example 356],119%,,
COc1cc(F)c(O[C@H]2CC[C@@](C)(C(=O)O)CC2)cc1C(=O)N[C@@H]1CCCO[C@@H]1C(=O)Nc1cccc(S(=O)(=O)C(F)(F)F)c1 [Example 357],101%,5400 nM,
COc1cc(C#N)c(O[C@H]2CC[C@@](C)(C(=O)O)CC2)cc1C(=O)N[C@@H]1CCCC[C@@H]1C(=O)NCC1(C)CCC1 [Example 361],91%,780 nM,
COc1cc(F)c(O[C@H]2CC[C@@](C)(C(=O)O)CC2)cc1C(=O)N[C@@H]1[C@@H]2CC[C@@H](C2)[C@@H]1C(=O)NCC(C)(C)C [Example 370],102%,,24 nM
COc1cc(C(F)(F)F)c(O[C@H]2CC[C@@](C)(C(=O)O)CC2)cc1C(=O)N[C@@H]1[C@H]2CC[C@H](C2)[C@@H]1C(=O)NCC1(C)CCC1 [Example 372],96%,,21 nM
CC1(CNC(=O)[C@H]2[C@@H]3CC[C@@H](C3)[C@H]2NC(=O)c2cc(O[C@H]3CC[C@@](C)(C(=O)O)CC3)c(F)cc2C#N)CCC1 [Example 377],100%,,
Cn1ncc2cc(C(=O)N[C@@H]3[C@H]4CC[C@H](C4)[C@@H]3C(=O)NCC3(C)CCC3)cc(O[C@H]3CC[C@@](C)(C(=O)O)CC3)c21 [Example 378],,> 2500 nM,
Cn1ncc2c(O[C@H]3CC[C@@](C)(C(=O)O)CC3)cc(C(=O)N[C@@H]3[C@H]4CC[C@H](C4)[C@@H]3C(=O)NCC3(C)CCC3)cc21 [Example 379],100%,480 nM,
COCc1cc(F)c(O[C@H]2CC[C@@](C)(C(=O)O)CC2)cc1C(=O)N[C@@H]1[C@H]2CC[C@H](C2)[C@@H]1C(=O)NCC1(C)CCC1 [Example 380],,> 2500 nM,
COc1cc(C)c(O[C@H]2CC[C@@](C)(C(=O)O)CC2)cc1C(=O)N[C@@H]1[C@H]2CC[C@H](C2)[C@@H]1C(=O)NC12CC(F)(C1)C2 [Example 382],90%,130 nM,
CCc1cc(OC)c(C(=O)N[C@@H]2[C@H]3CC[C@H](C3)[C@@H]2C(=O)NC23CC(F)(C2)C3)cc1O[C@H]1CC[C@@](C)(C(=O)O)CC1 [Example 383],89%,120 nM,
CCOc1cc(F)c(O[C@H]2CC[C@@](C)(C(=O)O)CC2)cc1C(=O)N[C@@H]1[C@H]2CC[C@H](C2)[C@@H]1C(=O)NC12CC(F)(C1)C2 [Example 384],108%,130 nM,
CC[C@]1(C(=O)O)CC[C@@H](Oc2cc(C(=O)N[C@@H]3[C@H]4CC[C@H](C4)[C@@H]3C(=O)NCC(C)(C)C)c(OC)cc2F)CC1 [Example 386],114%,70 nM,
COc1c(F)cc(O[C@H]2CC[C@@](C)(C(=O)O)CC2)cc1C(=O)N[C@@H]1[C@H]2CC[C@H](C2)[C@@H]1C(=O)NC12CC(F)(C1)C2 [Example 390],95%,180 nM,
COCCOc1cc(F)c(O[C@H]2CC[C@@](C)(C(=O)O)CC2)cc1C(=O)N[C@@H]1[C@H]2CC[C@H](C2)[C@@H]1C(=O)NCC1(C)CCC1 [Example 391],99%,110 nM,
"CC1(CNC(=O)[C@H]2[C@@H]3CC[C@@H](C3)[C@H]2NC(=O)c2cc(O[C@H]3CC[C@@](C)(C(=O)O)CC3)c(F)cc2Cl)CCC1 [Example 398, (1S,4s)-4-(4-Chloro-2-fluoro-5-(((1S,2R,3S,4R)-3-(((1-methylcyclobutyl)methyl)carbamoyl)bicyclo[2.2.1]heptan-2-yl)carbamoyl)phenoxy)-1-methylcyclohexane-1-carboxylic acid]",90%,130 nM,
CC1(CNC(=O)[C@H]2[C@@H]3CC[C@@H](C3)[C@H]2NC(=O)c2ccc(F)c(O[C@H]3CC[C@@](C)(C(=O)O)CC3)c2)CCC1 [Example 400],91%,,180 nM
COCc1cc(OC)c(C(=O)N[C@@H]2[C@H]3CC[C@H](C3)[C@@H]2C(=O)NCC2(C)CCC2)cc1O[C@H]1CC[C@@](C)(C(=O)O)CC1 [Example 402],131%,,620 nM
CC1(CNC(=O)[C@H]2[C@@H]3CC[C@@H](C3)[C@H]2NC(=O)c2cc(O[C@H]3CC[C@@](C)(C(=O)O)CC3)cc3cccnc23)CCC1 [Example 407],99%,260 nM,
COc1cc(F)c(O[C@H]2CC[C@@](F)(C(=O)O)CC2)cc1C(=O)N[C@@H]1[C@H]2CC[C@H](C2)[C@@H]1C(=O)NCC1(C)CCC1 [Example 415],103%,,
"COc1cc(F)c(O[C@H]2CC[C@@](C)(c3noc(=O)[nH]3)CC2)cc1C(=O)N[C@@H]1[C@H]2CC[C@H](C2)[C@@H]1C(=O)NCC1(C)CCC1 [Example 418, (1R,2S,3R,4S)-3-(4-fluoro-2-methoxy-5-(((1s,4S)-4-methyl-4-(5-oxo-4,5-dihydro-1,2,4-oxadiazol-3-yl)cyclohexyl)oxy)benzamido)-N-((1-methylcyclobutyl)methyl)bicyclo[2.2.1]heptane-2-carboxamide]",100%,,64 nM
"COc1cc(F)c(O[C@H]2CC[C@@](C)(C(N)=O)CC2)cc1C(=O)N[C@@H]1[C@@H]2CC[C@@H](C2)[C@@H]1C(=O)NCC1(C)CCC1 [Example 421, (1S,2S,3R,4R)-3-(5-(((1s,4S)-4-Carbamoyl-4-methylcyclohexyl)oxy)-4-fluoro-2-methoxybenzamido)-N-((1-methylcyclobutyl)methyl)bicyclo[2.2.1]heptane-2-carboxamide]",96%,44 nM,
"COc1cc(F)c(O[C@H]2CC[C@](CC#N)(C(=O)O)CC2)cc1C(=O)N[C@@H]1[C@H]2CC[C@H](C2)[C@@H]1C(=O)NCC1(C)CCC1 [Example 423, (1R,4r)-1-(Cyanomethyl)-4-(2-fluoro-4-methoxy-5-(((1S,2R,3S,4R)-3-(((1-methylcyclobutyl)methyl)carbamoyl)bicyclo[2.2.1]heptan-2-yl)carbamoyl)phenoxy)cyclohexane-1-carboxylic acid]",89%,,
COc1cc(C#N)c(OCCCC(C)(C)C(=O)O)cc1C(=O)N[C@@H]1[C@H]2CC[C@H](C2)[C@@H]1C(=O)NCC1(C)CCC1 [Example 431],115%,130 nM,
COc1cc(F)c(OCCCCCCCCC(=O)O)cc1C(=O)N[C@@H]1[C@H]2CC[C@H](C2)[C@@H]1C(=O)Nc1cccc(S(=O)(=O)C(F)(F)F)c1 [Example 437],104%,950 nM,
COc1cc(F)c(OCc2ccc(C(=O)O)cc2)cc1C(=O)N[C@@H]1[C@H]2CC[C@H](C2)[C@@H]1C(=O)Nc1cccc(S(=O)(=O)C(F)(F)F)c1 [Example 438],112%,260 nM,
COc1cc(F)c(OC[C@H]2CC[C@@H](C(=O)O)CC2)cc1C(=O)N[C@@H]1[C@H]2CC[C@H](C2)[C@@H]1C(=O)Nc1cccc(S(=O)(=O)C(F)(F)F)c1 [Example 440],111%,1200 nM,
